The values below are quoted from earlier work in patent US20250360058A1, “IN SITU FORMED CATIONIC ACP GEL FOR TREATMENT OF TOOTH […]” (KONINKLIJKE PHILIPS N.V., priority 2022, published 2025).

The conditions of the data set: between pH 6.5-8.0.

For the molecule `N=C(N)NCCC[C@H](N)C(=O)O` [Arginine, arginine], the “positively charged basic side chains” value is recorded as 100%.
`NCCCC[C@H](N)C(=O)O` [Lysine, lysine]: the “positively charged basic side chains” value is recorded as 100%.
